These results are taken from US20080241274A1 (ZIOPHARM Oncology, Inc., priority 2006, published 2008).

In one assay the test system is SKOV3 (ovarian). The assay is described as follows: Monolayer assay (DNA content by propidium iodide), single agents and indibulin combinations, SKOV3. The format is cell-based, human. The note with it: Homo sapiens. Here is the method: The monolayer assay determines the in vitro antitumor activity of test compounds and their capacity to inhibit survival and proliferation of established tumor cell lines. These effects can be determined by establishing the number of viable cells based on measuring the DNA content using propidium iodide. […] Between 5,000 and 10,000 cells were seeded in 96 well plates on Day 0 and the compounds were added 1 day later and incubated for 4 days. The activity was assessed by their IC50 and IC70 values.
Growth IC50 and IC70 values (Table 2) were determined using XLfit software package, and used to set the concentration ranges and drug ratios for the synergy detection part of the study.
Chou-Talalay median effect method was used to quantitatively characterize drug-drug interaction [Chou T. C. Theoretical basis, experimental design, and computerized simulation of synergism and antagonism in drug combination studies. Pharmacol Rev. 2006 September; 58(3):621-81]. […] Mixtures of the drugs at multiples of their single agent IC50's were prepared, as well as serial dilutions of the mixture. Additionally, single agent dose response was determined for the same concentration ranges as used for combination study.
The coefficient of interaction (CI(IC50)) at IC50 and coefficient of interaction under optimal experimental concentrations (CI(e)) were determined using CalcuSyn software package (Table 3, tests were performed in quadruplicate, mean values reported). Commonly, experimental values of CI<0.8 are considered synergistic, 0.8<CI<1.2 additive.

The test system of assay [1] is U87 glioblastoma xenografts. The assay is described as follows: U87 glioblastoma xenograft in nu/nu mice. The format is in vivo, Human. The text has this: 5×10^6 U87 glioblastoma cells were implanted subcutaneously in immunodeficient nu/nu mice. Treatment started when tumor weight was about 0.15 g (Day 0).
The significant differences in pharmacodynamics and safety profile of indibulin make it a strong candidate for development as an anti-cancer drug.
In general terms: Xenograft models place foreign cells or tissue in a host animal.

A further assay has as its system papillary thyroid cancer. As to the kind of experiment: Phase I study, patient with papillary thyroid cancer. In kind it is in vivo, human. To be noted: 400 mg BID continuous treatment. The source says: Treatment is ongoing. […] Treatment is ongoing.

Read-outs that look alike come from different tables or passages of the source.

Broadly, the IC50 is the concentration that gives 50% inhibition. Consider `O=C(Nc1ccncc1)C(=O)c1cn(Cc2ccc(Cl)cc2)c2ccccc12` [Indibulin, N-(pyridin-4-yl)-[1-(4-chlorobenzyl)-indol-3-yl]-glyoxylic acid amide], for which the half-inhibitory concentration (IC50) in the assay with SKOV3 (ovarian) (SK-OV-3, SKOV3, single agent (combination study), read-out: Single Agent IC50) was 0.415 µg/mL; in the assay with SKOV3 (ovarian) (SK-OV-3, SKOV3, indibulin + carboplatin, concentration of the named drug in the combination, read-out: Combination IC50) it was 0.029 µg/mL; in the assay with SKOV3 (ovarian) (SK-OV-3, SKOV3, indibulin + cisplatin, concentration of the named drug in the combination, read-out: Combination IC50), 0.022 µg/mL; with SKOV3 (ovarian) (SK-OV-3, SKOV3, indibulin + gemcitabine, concentration of the named drug in the combination, read-out: Combination IC50), 0.047 µg/mL. Besides, the “Growth Inhibition (%)” value in assay [1] (U87, 27.5 mg/kg/d, 3×(3× week), at sacrifice of control group animals) was determined as 88.8%. In addition, the “Growth of U87 glioblastoma xenografts (in words)” value in assay [1] (orally administered, s.c. tumors in nu/nu mice, FIG. 11) was “inhibits growth”. For the same molecule, the “Decrease of thyroglobulin level from baseline” value in the assay on papillary thyroid cancer (after 15th day of dosing) was determined as 34%. Besides, the “Decrease of tumor measurements” value in the assay with papillary thyroid cancer (at first assessment) was 11%. Moreover, in the assay with papillary thyroid cancer (person), the “Disease status after treatment” value is “stable disease”.
